According to patent US12516067B2, “Antagonists of the muscarinic acetylcholine receptor M4” (Vanderbilt University, priority 2020, dated 2026):

Biological target: T1, Human M4 (Homo sapiens, UniProt P08173)
T1 construct: expressed in transfected cells; host or cells: CHO-K1 (ATCC), co-transfected with chimeric G protein Gqi5
T1 sequence (P08173 1-479): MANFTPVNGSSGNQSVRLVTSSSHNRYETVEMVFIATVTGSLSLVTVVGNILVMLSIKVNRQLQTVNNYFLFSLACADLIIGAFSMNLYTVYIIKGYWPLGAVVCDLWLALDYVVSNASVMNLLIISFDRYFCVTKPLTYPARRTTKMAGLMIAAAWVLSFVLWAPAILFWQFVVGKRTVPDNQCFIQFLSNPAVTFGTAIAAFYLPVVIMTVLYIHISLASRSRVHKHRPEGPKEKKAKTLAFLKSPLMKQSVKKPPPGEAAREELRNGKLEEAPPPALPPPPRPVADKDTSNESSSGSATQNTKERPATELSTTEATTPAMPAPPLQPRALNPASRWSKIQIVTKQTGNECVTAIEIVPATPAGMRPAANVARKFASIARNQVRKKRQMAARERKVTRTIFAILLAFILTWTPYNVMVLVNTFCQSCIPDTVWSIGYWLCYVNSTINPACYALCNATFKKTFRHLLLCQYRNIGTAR
Assay: mAChR M4 cell-based functional assay (calcium flux, decrease of EC80 acetylcholine response) in M4/Gqi5/CHO-K1 cells
Conditions: CHO-K1 cells with human M4 and Gqi5; for remaining activity at 30 µM: % ACh maximum at 30 μM, read-out: Human M4 Emin; for IC50: antagonist mode: concentration-dependent decrease of response to EC80 acetylcholine
Protocol: Human or rat M4 cDNA, along with the chimeric G protein Gqi5, were transfected into Chinese hamster ovary (CHO-K1) cells purchased from the American Type Culture Collection using Lipofectamine2000. M4/Gqi5/CHO cells were grown in Ham's F-12 medium containing 10% heat-inactivated fetal bovine serum (FBS), 20 mM HEPES, 500 μg/mL G418 sulfate, and 200 μg/mL Hygromycin B.
For high throughput measurement of agonist-evoked increases in intracellular calcium, CHO-K1 cells stably expressing muscarinic receptors were plated in growth medium lacking G418 and hygromycin at 15,000 cells/20 μL/well in Greiner 384-well black-walled, tissue culture (TC)-treated, clear-bottom plates (VWR). Cells were incubated overnight at 37° C. and 5% CO2. The next day, cells were washed using an ELX 405 (BioTek) with assay buffer; the final volume was then aspirated to 20 μL. Next, 20 μL of a 2.3 μM stock of Fluo-4/acetoxymethyl ester (Invitrogen, Carlsbad, CA), prepared as a 2.3 mM stock in DMSO and mixed in a 1:1 ratio with 10% (w/v) Pluronic F-127 and diluted in assay buffer, was added to the wells and the cell plates were incubated for 50 min at 37° C. and 5% CO2. Dye was removed by washing with the ELX 405 and the final volume was aspirated to 20 μL. Compound master plates were formatted in a 10 point concentration-response curve (CRC) format (1:3 dilutions) in 100% DMSO with a starting concentration of 10 or 1 mM using a BRAVO liquid handler (Agilent). Test compound CRCs were then transferred to daughter plates (240 nL) using the Echo acoustic plate reformatter (Labcyte, Sunnyvale, CA) and then diluted into assay buffer (40 μL) to a 2× stock using a Thermo Fisher Combi (Thermo Fisher Scientific, Waltham, MA).
Calcium flux was measured using the Functional Drug Screening System (FDSS) 6000 or 7000 (Hamamatsu Corporation, Tokyo, Japan) as an increase in the fluorescent static ratio. Compounds were applied to cells (20 μL, 2×) using the automated system of the FDSS at 2 seconds into the protocol and the data were collected at 1 Hz. At 143 s, 10 μL of an EC20 concentration of the muscarinic receptor agonist acetylcholine was added (5×), followed by the addition of 12 μL of an EC80 concentration of acetylcholine at the 268 s time point (5×). Agonist activity was analyzed as a concentration-dependent increase in calcium mobilization upon compound addition. Positive allosteric modulator activity was analyzed as a concentration-dependent increase in the EC20 acetylcholine response. Antagonist activity was analyzed as a concentration-dependent decrease in the EC80 acetylcholine response; for the purposes of the tables herein, an IC50 (inhibitory concentration 50) was calculated as a concentration-dependent decrease of the response elicited by an EC80 concentration of acetylcholine. Concentration-response curves were generated using a four-parameter logistical equation in XLFit curve fitting software (IDBS, Bridgewater, NJ) for Excel (Microsoft, Redmond, WA) or Prism (GraphPad Software, Inc., San Diego, CA) or the Dotmatics software platform (Dotmatics, Bishop's Stortford, UK).
Compounds were synthesized as described above. Activity (IC50 and Emin) was determined in the mAChR M4 cell-based functional assay as described above and the data are shown in Table 1.

Row | Structure (SMILES) | remaining activity at 30 µM [%] | IC50 [nM]
1 | Fc1cc(F)c(F)c(-c2ccc(NCc3csc4c3CCN(CC3CCOCC3)C4)nn2)c1 [A1, N-((6-((tetrahydro-2H-pyran-4-yl)methyl)-4,5,6,7-tetrahydrothieno[2,3-c]pyridin-3-yl)methyl)-6-(2,3,5-trifluorophenyl)pyridazin-3-amine] | 3 | 595
2 | Fc1ccc(Cl)c(-c2ccc(NCc3csc4c3CCN(CC3CCOCC3)C4)nn2)c1 [A2, 6-(2-chloro-5-fluorophenyl)-N-((6-((tetrahydro-2H-pyran-4-yl)methyl)-4,5,6,7-tetrahydrothieno[2,3-c]pyridin-3-yl)methyl)pyridazin-3-amine] | 3 | 85.2
3 | Cn1cc2cc(-c3ccc(NCc4csc5c4CCN(CC4CCOCC4)C5)nn3)ccc2n1 [A3, 6-(2-methyl-2H-indazol-5-yl)-N-((6-((tetrahydro-2H-pyran-4-yl)methyl)-4,5,6,7-tetrahydrothieno[2,3-c]pyridin-3-yl)methyl)pyridazin-3-amine] | 9 | 529
4 | Fc1ccc(F)c(-c2ccc(NCc3csc4c3CCN(CC3CCOCC3)C4)nn2)c1 [A4, 6-(2,5-difluorophenyl)-N-((6-((tetrahydro-2H-pyran-4-yl)methyl)-4,5,6,7-tetrahydrothieno[2,3-c]pyridin-3-yl)methyl)pyridazin-3-amine] | 4 | 420
5 | Cc1ccc(F)cc1-c1ccc(NCc2csc3c2CCN(CC2CCOCC2)C3)nn1 [A5, 6-(5-fluoro-2-methylphenyl)-N-((6-((tetrahydro-2H-pyran-4-yl)methyl)-4,5,6,7-tetrahydrothieno[2,3-c]pyridin-3-yl)methyl)pyridazin-3-amine] | 5 | 77.3
6 | FC1(F)CCN(c2ccc(NCc3csc4c3CCN(CC3CCOCC3)C4)nn2)CC1 [A6, 6-(4,4-difluoropiperidin-1-yl)-N-((6-((tetrahydro-2H-pyran-4-yl)methyl)-4,5,6,7-tetrahydrothieno[2,3-c]pyridin-3-yl)methyl)pyridazin-3-amine] | 7 | 668
7 | c1ccc(-c2ccc(NCc3csc4c3CCN(CC3CCOCC3)C4)nn2)cc1 [A7, 6-phenyl-N-((6-((tetrahydro-2H-pyran-4-yl)methyl)-4,5,6,7-tetrahydrothieno[2,3-c]pyridin-3-yl)methyl)pyridazin-3-amine] | 6 | 477
8 | O=S1(=O)CCCCN1c1ccc(NCc2csc3c2CCN(CC2CCOCC2)C3)nn1 [A8, 2-(6-(((6-((tetrahydro-2H-pyran-4-yl)methyl)-4,5,6,7-tetrahydrothieno[2,3-c]pyridin-3-yl)methyl)amino)pyridazin-3-yl)-1,2-thiazinane 1,1-dioxide] | 11 | 1400
9 | Fc1ccc(Cl)c(-c2ccc(NCc3csc4c3CCN(CC3CCCCC3)C4)nn2)c1 [A9, 6-(2-chloro-5-fluorophenyl)-N-((6-(cyclohexylmethyl)-4,5,6,7-tetrahydrothieno[2,3-c]pyridin-3-yl)methyl)pyridazin-3-amine] | 5 | 99.7
10 | CC(C)(C)CCN1CCc2c(CNc3ccc(-c4cc(F)ccc4Cl)nn3)csc2C1 [A10, 6-(2-chloro-5-fluorophenyl)-N-((6-(3,3-dimethylbutyl)-4,5,6,7-tetrahydrothieno[2,3-c]pyridin-3-y)methyl)pyridazin-3-amine] | 4 | 84.7
11 | Fc1ccc(Cl)c(-c2ccc(NCc3csc4c3CCN(Cc3ccccn3)C4)nn2)c1 [A11, 6-(2-chloro-5-fluorophenyl)-N-((6-(pyridin-2-ylmethyl)-4,5,6,7-tetrahydrothieno[2,3-c]pyridin-3-yl)methyl)pyridazin-3-amine] | 4 | 183
12 | Cc1ccc(CN2CCc3c(CNc4ccc(-c5cc(F)ccc5Cl)nn4)csc3C2)nc1 [A12, 6-(2-chloro-5-fluorophenyl)-N-((6-((5-methylpyridin-2-yl)methyl)-4,5,6,7-tetrahydrothieno[2,3-c]pyridin-3-yl)methyl)pyridazin-3-amine] | 10 | 1480
13 | OC1(CN2CCc3c(CNc4ccc(-c5cc(F)ccc5Cl)nn4)csc3C2)CCCCC1 [A13, 1-((3-(((6-(2-chloro-5-fluorophenyl)pyridazin-3-yl)amino)methyl)-4,7-dihydrothieno[2,3-c]pyridin-6(5H)-yl)methyl)cyclohexan-1-ol] | 4 | 276
14 | CN(Cc1csc2c1CCN(CC1CCOCC1)C2)c1ccc(-c2cc(F)ccc2Cl)nn1 [A14, 6-(2-chloro-5-fluorophenyl)-N-methyl-N-((6-((tetrahydro-2H-pyran-4-yl)methyl)-4,5,6,7-tetrahydrothieno[2,3-c]pyridin-3-yl)methyl)pyridazin-3-amine] | 7 | 1680
15 | [2H]C([2H])([2H])N(Cc1csc2c1CCN(CC1CCOCC1)C2)c1ccc(-c2cc(F)ccc2Cl)nn1 [A15, 6-(2-chloro-5-fluorophenyl)-N-(methyl-d3)-N-((6-((tetrahydro-2H-pyran-4-yl)methyl)-4,5,6,7-tetrahydrothieno[2,3-c]pyridin-3-yl)methyl)pyridazin-3-amine] | 8 | 957
16 | [2H]C([2H])(C1CCOCC1)N1CCc2c(CNc3ccc(-c4cc(F)ccc4Cl)nn3)csc2C1 [A16, 6-(2-chloro-5-fluorophenyl)-N-((6-((tetrahydro-2H-pyran-4-yl)methyl-d2)-4,5,6,7-tetrahydrothieno[2,3-c]pyridin-3-yl)methyl)pyridazin-3-amine] | 5 | 46.5
17 | Fc1ccc(Cl)c(-c2ccc(NCc3cccc4c3CCN(CC3CCOCC3)C4)nn2)c1 [B1, 6-(2-chloro-5-fluorophenyl)-N-((2-((tetrahydro-2H-pyran-4-yl)methyl)-1,2,3,4-tetrahydroisoquinolin-5-yl)methyl)pyridazin-3-amine] | 6 | 356
18 | CC(C)(C)CCN1CCc2c(CNc3ccc(-c4cc(F)ccc4Cl)nn3)cccc2C1 [B2, 6-(2-chloro-5-fluorophenyl)-N-((2-(3,3-dimethylbutyl)-1,2,3,4-tetrahydroisoquinolin-5-yl)methyl)pyridazin-3-amine] | 6 | 98.9
19 | Fc1ccc(Cl)c(-c2ccc(NCc3cccc4c3CCN(CC3CCCCC3)C4)nn2)c1 [B3, 6-(2-chloro-5-fluorophenyl)-N-((2-(cyclohexylmethyl)-1,2,3,4-tetrahydroisoquinolin-5-y1)methyl)pyridazin-3-amine] | 6 | 251
20 | Fc1ccc(Cl)c(-c2ccc(NCc3cccc4c3CCN(Cc3ccccn3)C4)nn2)c1 [B4, 6-(2-chloro-5-fluorophenyl)-N-((2-(pyridin-2-ylmethyl)-1,2,3,4-tetrahydroisoquinolin-5-yl)methyl)pyridazin-3-amine] | 6 | 288
